ChEMBL document CHEMBL5303766, “Data for DCP probe FHT-2344” (2022)

Columns and labels:
[1] = molecular target: Sodium-dependent noradrenaline transporter (Homo sapiens, UniProt P23975); assay: GPCRScan assay: inhibition of NET; design: radioligand conc. used [nm] 1.3 – 5.0, parental cells stable HEK
[2] = molecular target: Sigma non-opioid intracellular receptor 1 (Homo sapiens, UniProt Q99720); assay: GPCRScan assay: inhibition of Sigma 1; design: radioligand conc. used [nm] 4.0 – 5.0, parental cells HEKT
Sigma non-opioid intracellular receptor 1, sequence (Q99720 whole entry): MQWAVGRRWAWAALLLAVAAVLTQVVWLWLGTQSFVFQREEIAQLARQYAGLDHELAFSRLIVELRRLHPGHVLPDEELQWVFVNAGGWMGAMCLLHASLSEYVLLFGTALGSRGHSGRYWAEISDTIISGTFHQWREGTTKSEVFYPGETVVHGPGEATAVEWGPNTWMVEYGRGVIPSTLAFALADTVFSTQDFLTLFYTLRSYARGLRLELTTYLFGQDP

[3] = molecular target: SWI/SNF-related matrix-associated actin-dependent regulator of chromatin subfamily A member 4 (Homo sapiens, UniProt P51532); assay: Measurement of the ATPase catalytic activity using the ADP-Glo detection (SMARCA4); assay type: functional
SWI/SNF-related matrix-associated actin-dependent regulator of chromatin subfamily A member 4, sequence (P51532 whole entry): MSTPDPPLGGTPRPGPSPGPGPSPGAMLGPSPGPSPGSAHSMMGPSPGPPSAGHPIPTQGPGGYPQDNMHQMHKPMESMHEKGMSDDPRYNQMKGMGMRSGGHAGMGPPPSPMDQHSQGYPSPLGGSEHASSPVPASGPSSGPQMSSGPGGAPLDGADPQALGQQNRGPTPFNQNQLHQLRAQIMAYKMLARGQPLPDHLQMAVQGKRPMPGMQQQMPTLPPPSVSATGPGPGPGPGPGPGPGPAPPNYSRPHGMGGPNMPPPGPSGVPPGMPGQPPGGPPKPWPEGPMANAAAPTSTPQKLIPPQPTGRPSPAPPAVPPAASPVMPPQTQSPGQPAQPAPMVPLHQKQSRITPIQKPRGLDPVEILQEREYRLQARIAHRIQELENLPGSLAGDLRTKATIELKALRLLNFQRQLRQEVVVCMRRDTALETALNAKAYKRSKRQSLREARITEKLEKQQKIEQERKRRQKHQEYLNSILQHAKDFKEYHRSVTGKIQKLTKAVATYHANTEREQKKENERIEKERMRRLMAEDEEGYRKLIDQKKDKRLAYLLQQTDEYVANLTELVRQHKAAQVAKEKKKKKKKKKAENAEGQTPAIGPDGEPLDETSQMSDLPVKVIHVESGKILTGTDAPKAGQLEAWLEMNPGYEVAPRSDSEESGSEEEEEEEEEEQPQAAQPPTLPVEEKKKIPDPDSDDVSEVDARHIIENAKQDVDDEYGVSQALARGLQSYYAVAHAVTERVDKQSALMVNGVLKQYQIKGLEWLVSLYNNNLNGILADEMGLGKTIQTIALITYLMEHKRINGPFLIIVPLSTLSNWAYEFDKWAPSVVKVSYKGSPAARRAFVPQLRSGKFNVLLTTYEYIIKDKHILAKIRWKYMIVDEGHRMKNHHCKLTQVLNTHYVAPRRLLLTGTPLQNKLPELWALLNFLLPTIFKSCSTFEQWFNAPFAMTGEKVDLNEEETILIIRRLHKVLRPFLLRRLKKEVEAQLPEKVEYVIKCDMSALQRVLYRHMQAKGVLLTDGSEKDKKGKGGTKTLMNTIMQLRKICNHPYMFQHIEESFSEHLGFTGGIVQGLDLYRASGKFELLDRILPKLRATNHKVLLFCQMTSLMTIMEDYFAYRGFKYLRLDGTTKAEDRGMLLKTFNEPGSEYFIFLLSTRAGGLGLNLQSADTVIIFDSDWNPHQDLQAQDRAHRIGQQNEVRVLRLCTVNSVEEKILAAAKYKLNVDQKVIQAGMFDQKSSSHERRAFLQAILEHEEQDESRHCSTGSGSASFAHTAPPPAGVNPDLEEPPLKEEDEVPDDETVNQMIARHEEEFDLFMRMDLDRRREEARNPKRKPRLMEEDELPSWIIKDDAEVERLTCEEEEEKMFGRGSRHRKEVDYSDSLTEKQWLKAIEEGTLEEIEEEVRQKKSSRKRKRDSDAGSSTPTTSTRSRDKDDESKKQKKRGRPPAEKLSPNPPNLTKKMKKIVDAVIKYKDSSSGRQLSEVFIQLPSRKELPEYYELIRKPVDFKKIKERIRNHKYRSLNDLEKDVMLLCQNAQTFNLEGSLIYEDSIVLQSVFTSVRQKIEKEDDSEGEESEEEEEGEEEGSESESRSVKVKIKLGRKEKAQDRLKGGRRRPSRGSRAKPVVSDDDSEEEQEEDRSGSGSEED

[4] = molecular target: Calcium/calmodulin-dependent protein kinase kinase 2 (Homo sapiens) (UniProt Q96RR4); assay: CAMKK2 SGC Tm panel (DSF); settings: for ΔTm: Compound concentration 10.0 uM
Calcium/calmodulin-dependent protein kinase kinase 2 (Homo sapiens), sequence (Q96RR4 2-588 limits assumed): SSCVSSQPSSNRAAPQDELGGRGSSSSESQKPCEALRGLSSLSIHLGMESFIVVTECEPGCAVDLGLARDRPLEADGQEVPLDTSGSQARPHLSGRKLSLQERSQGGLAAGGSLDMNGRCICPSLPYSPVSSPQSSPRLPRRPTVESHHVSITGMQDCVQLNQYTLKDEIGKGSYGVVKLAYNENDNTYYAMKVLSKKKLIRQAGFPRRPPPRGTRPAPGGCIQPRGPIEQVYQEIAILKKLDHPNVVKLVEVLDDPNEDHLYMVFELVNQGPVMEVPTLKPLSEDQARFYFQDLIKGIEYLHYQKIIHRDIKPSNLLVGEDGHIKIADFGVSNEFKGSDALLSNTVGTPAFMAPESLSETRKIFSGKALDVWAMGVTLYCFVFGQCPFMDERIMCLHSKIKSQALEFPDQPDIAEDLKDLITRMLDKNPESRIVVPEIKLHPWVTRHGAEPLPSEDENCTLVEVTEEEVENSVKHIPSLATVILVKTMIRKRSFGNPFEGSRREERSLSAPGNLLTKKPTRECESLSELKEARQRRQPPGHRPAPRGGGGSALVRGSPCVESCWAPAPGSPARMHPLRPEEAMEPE

[5] = molecular target: T1, Dual specificity protein kinase TTK (Homo sapiens) (UniProt P33981); assay: TTK SGC Tm panel (DSF); settings: for ΔTm: Compound concentration 10.0 uM
T1 sequence (whole entry): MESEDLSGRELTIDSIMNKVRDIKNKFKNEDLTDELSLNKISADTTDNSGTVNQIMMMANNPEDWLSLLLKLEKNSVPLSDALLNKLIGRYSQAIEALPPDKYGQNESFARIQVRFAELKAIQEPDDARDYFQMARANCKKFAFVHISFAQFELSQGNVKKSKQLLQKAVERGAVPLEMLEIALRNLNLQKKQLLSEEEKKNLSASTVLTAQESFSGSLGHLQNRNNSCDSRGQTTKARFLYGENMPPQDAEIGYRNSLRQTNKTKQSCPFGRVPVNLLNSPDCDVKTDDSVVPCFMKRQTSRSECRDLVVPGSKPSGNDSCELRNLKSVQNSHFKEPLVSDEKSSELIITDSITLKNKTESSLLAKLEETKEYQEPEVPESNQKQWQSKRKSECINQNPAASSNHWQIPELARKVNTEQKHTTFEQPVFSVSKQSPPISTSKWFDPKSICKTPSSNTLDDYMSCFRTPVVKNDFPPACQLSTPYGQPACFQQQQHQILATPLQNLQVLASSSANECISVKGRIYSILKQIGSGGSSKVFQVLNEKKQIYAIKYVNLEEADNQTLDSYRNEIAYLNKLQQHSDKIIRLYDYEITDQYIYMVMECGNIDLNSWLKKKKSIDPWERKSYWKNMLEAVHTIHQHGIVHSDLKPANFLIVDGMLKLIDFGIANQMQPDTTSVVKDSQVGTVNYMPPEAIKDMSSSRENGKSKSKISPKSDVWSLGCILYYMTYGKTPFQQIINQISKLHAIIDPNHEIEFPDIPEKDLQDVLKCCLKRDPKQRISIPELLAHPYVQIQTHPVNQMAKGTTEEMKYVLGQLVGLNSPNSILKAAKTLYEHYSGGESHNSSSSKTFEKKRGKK

[6] = molecular target: Mitogen-activated protein kinase 1 (Homo sapiens) (UniProt P28482); assay: MAPK1 SGC Tm panel (DSF); settings: for ΔTm: Compound concentration 10.0 uM
Mitogen-activated protein kinase 1 (Homo sapiens), sequence (P28482 whole entry): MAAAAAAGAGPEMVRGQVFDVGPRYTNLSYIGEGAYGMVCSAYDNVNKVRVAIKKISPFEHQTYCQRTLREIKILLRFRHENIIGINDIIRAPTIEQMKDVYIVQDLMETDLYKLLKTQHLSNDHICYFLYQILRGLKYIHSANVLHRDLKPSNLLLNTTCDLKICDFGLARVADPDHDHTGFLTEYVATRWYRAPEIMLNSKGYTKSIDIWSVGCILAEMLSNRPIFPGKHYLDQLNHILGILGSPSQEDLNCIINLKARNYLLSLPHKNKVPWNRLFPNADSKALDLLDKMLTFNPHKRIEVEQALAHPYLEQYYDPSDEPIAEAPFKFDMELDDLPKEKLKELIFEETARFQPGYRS

[7] = molecular target: T2, Mitogen-activated protein kinase kinase kinase 5 (Homo sapiens) (UniProt Q99683); assay: MAP3K5 SGC Tm panel (DSF); settings: for ΔTm: Compound concentration 10.0 uM
T2 sequence (whole entry): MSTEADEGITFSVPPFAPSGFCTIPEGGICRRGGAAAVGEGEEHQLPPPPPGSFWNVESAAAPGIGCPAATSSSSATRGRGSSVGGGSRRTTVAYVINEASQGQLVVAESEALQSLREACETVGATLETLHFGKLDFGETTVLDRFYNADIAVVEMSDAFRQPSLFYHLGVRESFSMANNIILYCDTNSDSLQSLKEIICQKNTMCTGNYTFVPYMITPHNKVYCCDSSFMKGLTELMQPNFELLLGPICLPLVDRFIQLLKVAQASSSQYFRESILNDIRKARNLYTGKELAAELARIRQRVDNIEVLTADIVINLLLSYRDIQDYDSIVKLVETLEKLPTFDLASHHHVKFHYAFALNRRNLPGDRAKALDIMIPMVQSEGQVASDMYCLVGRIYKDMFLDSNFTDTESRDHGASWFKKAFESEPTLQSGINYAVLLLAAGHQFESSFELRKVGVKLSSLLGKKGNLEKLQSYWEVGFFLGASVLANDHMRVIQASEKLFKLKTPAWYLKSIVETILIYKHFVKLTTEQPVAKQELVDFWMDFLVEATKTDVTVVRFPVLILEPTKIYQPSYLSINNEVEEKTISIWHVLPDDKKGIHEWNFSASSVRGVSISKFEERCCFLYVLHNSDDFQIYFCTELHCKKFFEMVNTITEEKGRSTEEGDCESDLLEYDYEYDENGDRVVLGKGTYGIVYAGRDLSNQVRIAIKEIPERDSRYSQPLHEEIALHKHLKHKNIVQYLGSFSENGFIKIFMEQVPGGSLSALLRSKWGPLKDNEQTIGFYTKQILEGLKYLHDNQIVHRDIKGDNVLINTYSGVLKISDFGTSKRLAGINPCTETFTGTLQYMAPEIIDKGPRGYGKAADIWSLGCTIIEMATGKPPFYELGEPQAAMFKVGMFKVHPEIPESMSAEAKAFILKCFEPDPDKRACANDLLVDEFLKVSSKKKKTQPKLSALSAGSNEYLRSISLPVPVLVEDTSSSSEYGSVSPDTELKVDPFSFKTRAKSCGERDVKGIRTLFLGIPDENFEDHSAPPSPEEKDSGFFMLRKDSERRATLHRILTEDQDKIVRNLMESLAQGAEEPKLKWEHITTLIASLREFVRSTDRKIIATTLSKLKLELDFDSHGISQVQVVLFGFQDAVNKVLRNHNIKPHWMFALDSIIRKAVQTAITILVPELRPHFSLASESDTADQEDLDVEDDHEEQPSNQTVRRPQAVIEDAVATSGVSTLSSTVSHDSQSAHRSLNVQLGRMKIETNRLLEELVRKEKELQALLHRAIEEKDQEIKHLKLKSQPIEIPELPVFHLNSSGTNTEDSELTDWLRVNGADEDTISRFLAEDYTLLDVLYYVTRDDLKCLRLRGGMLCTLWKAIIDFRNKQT

[8] = molecular target: 5-hydroxytryptamine receptor 1E (Homo sapiens) (UniProt P28566); settings: Compound concentration 10.0 uM
5-hydroxytryptamine receptor 1E (Homo sapiens), sequence (P28566 whole entry): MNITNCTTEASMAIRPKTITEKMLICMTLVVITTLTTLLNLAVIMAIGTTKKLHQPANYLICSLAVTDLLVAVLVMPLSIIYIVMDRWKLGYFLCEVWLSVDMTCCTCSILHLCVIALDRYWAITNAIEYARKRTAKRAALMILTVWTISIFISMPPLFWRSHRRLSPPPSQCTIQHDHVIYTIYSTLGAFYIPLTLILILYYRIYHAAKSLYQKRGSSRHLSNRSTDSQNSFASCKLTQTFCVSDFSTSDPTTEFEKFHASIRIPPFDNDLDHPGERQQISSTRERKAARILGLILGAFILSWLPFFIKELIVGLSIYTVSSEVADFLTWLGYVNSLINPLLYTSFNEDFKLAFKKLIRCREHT

[9] = molecular target: GABA-A receptor; anion channel (Rattus norvegicus) (UniProt O09028+P15431+P18506+P18508+P19969+P20236+P23574+P23576+P28471+P28473+P30191+P62813+P63079+P63138+Q91ZM7+Q9ES14); settings: Compound concentration 10.0 uM
[10] = molecular target: Beta-1 adrenergic receptor (Homo sapiens) (UniProt P08588); settings: Compound concentration 10.0 uM
Beta-1 adrenergic receptor (Homo sapiens), sequence (P08588 whole entry, looked up): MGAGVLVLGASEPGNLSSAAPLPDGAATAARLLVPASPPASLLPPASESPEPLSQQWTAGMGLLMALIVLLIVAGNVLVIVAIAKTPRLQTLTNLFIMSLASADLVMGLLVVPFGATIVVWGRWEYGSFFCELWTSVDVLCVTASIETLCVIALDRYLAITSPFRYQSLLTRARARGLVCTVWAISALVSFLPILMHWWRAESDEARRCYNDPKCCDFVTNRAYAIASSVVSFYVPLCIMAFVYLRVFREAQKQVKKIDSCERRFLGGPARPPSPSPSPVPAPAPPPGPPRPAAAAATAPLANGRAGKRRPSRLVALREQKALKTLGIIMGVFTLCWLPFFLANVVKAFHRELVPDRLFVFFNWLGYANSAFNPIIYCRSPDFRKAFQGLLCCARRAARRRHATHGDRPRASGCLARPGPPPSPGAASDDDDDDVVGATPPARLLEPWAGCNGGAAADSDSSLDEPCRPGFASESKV

[11] = molecular target: Muscarinic acetylcholine receptor M1 (Homo sapiens) (UniProt P11229); settings: Compound concentration 10.0 uM
[12] = molecular target: Beta-3 adrenergic receptor (Homo sapiens) (UniProt P13945); settings: Compound concentration 10.0 uM
Beta-3 adrenergic receptor (Homo sapiens), sequence (P13945 whole entry, looked up): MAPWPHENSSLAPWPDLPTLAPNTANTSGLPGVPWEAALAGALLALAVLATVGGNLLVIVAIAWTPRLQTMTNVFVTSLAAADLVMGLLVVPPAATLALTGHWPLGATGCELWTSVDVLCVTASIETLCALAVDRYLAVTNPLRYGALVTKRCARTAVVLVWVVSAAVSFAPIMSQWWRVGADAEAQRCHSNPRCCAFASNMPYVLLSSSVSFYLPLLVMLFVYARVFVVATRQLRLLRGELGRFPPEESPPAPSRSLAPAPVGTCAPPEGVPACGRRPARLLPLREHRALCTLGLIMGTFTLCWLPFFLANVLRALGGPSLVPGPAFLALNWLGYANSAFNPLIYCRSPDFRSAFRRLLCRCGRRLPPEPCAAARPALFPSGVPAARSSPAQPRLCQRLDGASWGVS

Sodium-dependent noradrenaline transporter, sequence (P23975 whole entry): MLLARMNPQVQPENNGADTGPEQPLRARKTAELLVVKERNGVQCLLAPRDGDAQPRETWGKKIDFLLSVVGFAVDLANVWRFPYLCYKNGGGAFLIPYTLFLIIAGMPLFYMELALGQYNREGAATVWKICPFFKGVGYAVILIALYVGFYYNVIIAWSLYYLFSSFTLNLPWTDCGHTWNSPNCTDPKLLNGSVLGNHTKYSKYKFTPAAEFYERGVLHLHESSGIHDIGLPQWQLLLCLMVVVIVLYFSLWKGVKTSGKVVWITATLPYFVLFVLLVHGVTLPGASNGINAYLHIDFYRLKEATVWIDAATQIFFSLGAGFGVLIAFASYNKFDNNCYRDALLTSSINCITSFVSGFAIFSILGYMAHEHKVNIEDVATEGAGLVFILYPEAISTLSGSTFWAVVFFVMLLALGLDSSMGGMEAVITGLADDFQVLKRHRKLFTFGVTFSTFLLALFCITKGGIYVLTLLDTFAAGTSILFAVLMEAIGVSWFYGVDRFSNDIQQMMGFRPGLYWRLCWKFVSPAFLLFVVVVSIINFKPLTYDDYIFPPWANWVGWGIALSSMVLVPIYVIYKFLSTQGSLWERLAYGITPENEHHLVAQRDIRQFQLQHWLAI

Row | SMILES | Ki [1] [nM] | Ki ([2]; read-out: Ki) [nM] | Ki ([2]; read-out: pKi (converted)) [nM] | IC50 [3] | delta Tm Staurosporine positive control [4] | ΔTm [4] | delta Tm Staurosporine positive control [5] | ΔTm [5] | delta Tm Staurosporine positive control [6] | ΔTm [6] | delta Tm Staurosporine positive control [7] | ΔTm [7] | inhibition [8] [%] | inhibition [9] [%] | inhibition [10] [%] | inhibition [11] [%] | inhibition [12] [%]
1 | C[C@H](NC(=O)c1cn(C2(C#N)CC2)cn1)C(=O)Nc1nc(-c2cccc(-c3ccn(C)n3)c2)cs1 | 8270 | 417 | 407 | 3990 nM (not active) | 24.4 | 0.609 | 8.8 | -0.371 | 1.98 | 0.442 | 18.1 | 1.17 | -0.87 | 49.4 | 3.85 | 23.2 | 
2 | COC[C@H](NC(=O)c1ccn(S(C)(=O)=O)c1)C(=O)Nc1nc(-c2cccc(-c3ccn(C)n3)c2)cs1 |  |  |  |  | 24.4 | 0.325 | 8.8 | -1.35 | 1.98 | 0.812 | 18.1 | 1.14 |  |  | 1.4 |  | -3.49
